Laboratory results published in paper PMC7104723 (Cell Research, 2020).
“And” between values parts separate entries of the source, which are not always exact repeats. Equal values may be shown once.

Key:
[1] = test system: live HCoV-229E
[2] = test system: HCoV-OC43; format: in vivo, mice
[3] = test system: WIV1 PsV
[4] = target: MERS-CoV S protein (Middle East respiratory syndrome-related coronavirus, UniProt K9N5Q8); test: cell-based; format: cell-based
[5] = test system: live SARS-CoV-2
[6] = test system: SARS-CoV PsV; conditions: 72 h
[7] = test system: live HCoV-OC43
[8] = test system: MERS-CoV PsV; conditions: 72 h
[9] = test system: HCoV-229E PsV
[10] = test system: live MERS-CoV
[11] = target: SARS-CoV S protein (Severe acute respiratory syndrome coronavirus, UniProt P59594); test: cell-based; format: cell-based
[12] = test system: live HCoV-NL63
[13] = test system: HCoV-OC43 PsV; conditions: 72 h
[14] = target: SARS-2-HR1 (Severe acute respiratory syndrome coronavirus 2, UniProt P0DTC2); format: binding, SARS-CoV-2
[15] = target: HCoV-OC43 S protein (Human coronavirus OC43, UniProt P36334); test: cell-based; format: cell-based
[16] = test system: HCoV-NL63 PsV
[17] = test system: SARS-CoV-2 PsV
[18] = target: SARS-CoV-2 S protein (Severe acute respiratory syndrome coronavirus 2, UniProt P0DTC2); test: cell-based; format: cell-based
[19] = test system: Rs3367 PsV

Sequence of MERS-CoV S protein (K9N5Q8 18-1353 limits assumed): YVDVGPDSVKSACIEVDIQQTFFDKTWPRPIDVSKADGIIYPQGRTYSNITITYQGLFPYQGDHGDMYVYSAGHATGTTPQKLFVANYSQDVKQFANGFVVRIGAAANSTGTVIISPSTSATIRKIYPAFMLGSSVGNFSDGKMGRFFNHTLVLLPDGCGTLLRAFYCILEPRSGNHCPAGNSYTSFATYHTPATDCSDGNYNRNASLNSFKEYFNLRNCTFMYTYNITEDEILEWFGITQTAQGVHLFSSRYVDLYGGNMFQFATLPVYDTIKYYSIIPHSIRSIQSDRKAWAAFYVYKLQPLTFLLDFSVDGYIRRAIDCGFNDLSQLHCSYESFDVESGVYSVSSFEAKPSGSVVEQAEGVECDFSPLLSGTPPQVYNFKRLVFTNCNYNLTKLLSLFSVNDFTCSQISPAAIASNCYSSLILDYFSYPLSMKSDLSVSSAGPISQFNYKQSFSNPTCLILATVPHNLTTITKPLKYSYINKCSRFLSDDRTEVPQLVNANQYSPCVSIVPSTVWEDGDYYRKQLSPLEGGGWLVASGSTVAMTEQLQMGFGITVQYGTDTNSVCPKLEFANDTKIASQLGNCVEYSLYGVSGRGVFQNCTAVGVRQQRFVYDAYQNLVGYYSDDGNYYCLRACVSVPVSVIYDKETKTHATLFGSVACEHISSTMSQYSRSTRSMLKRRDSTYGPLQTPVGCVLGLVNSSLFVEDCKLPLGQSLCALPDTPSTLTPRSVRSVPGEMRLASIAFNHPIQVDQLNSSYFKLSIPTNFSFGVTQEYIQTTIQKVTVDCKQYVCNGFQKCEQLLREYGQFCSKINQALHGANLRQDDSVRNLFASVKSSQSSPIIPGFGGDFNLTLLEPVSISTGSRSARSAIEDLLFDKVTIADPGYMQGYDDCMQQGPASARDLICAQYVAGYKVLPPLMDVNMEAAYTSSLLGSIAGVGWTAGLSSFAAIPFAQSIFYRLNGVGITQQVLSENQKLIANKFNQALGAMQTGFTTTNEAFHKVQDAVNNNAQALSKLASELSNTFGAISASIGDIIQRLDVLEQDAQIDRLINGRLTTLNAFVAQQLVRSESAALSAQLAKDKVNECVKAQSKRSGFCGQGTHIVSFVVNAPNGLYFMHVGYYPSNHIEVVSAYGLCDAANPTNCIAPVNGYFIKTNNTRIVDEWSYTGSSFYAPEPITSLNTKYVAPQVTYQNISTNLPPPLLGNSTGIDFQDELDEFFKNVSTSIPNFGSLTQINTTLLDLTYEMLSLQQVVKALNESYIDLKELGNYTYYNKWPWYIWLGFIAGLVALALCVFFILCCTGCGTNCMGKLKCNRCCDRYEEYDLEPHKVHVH
Sequence of HCoV-OC43 S protein (P36334 14-1353 limits assumed): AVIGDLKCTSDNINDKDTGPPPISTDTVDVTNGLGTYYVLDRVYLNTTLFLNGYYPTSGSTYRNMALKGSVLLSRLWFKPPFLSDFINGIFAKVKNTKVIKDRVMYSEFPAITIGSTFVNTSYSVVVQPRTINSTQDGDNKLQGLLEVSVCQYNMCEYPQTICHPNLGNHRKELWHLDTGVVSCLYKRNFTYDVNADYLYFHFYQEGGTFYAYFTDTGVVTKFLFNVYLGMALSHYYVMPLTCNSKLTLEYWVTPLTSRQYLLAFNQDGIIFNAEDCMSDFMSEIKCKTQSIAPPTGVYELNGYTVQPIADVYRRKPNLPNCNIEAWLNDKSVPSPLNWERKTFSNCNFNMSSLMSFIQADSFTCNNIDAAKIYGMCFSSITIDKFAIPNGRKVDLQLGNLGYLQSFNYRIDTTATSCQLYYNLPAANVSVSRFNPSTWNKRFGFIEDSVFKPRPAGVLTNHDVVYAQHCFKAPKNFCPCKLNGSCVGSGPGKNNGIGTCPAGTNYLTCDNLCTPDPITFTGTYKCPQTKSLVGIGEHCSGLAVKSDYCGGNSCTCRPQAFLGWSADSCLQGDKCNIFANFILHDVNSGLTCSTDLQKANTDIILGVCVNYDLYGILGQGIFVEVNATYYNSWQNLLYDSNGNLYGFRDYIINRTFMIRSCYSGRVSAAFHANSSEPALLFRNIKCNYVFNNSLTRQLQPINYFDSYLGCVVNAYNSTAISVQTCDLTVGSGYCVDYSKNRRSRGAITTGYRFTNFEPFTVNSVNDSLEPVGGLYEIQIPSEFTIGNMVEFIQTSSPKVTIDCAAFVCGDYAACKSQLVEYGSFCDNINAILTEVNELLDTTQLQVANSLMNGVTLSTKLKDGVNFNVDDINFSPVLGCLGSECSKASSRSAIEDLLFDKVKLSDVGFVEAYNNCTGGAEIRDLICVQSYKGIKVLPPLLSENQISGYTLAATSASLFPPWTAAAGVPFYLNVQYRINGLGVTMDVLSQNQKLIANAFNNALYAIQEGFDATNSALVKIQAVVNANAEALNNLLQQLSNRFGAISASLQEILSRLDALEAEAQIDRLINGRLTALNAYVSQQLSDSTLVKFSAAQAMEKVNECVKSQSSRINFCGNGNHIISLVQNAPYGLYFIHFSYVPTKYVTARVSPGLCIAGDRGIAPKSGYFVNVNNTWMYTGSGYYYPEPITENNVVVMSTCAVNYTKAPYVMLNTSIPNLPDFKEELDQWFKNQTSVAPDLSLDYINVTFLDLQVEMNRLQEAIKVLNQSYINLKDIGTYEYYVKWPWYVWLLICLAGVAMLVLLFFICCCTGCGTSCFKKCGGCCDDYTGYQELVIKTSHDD

In the case of `CC[C@H](C)[C@H](NC(=O)[C@H](C)NC(=O)[C@H](CCC(=O)O)NC(=O)[C@H](CCC(=O)O)NC(=O)[C@H](CC(C)C)NC(=O)[C@H](CCCCN)NC(=O)[C@H](CCCCN)NC(=O)[C@H](CCSC)NC(=O)[C@H](CCC(=O)O)NC(=O)[C@H](Cc1ccc(O)cc1)NC(=O)[C@H](CCC(=O)O)NC(=O)[C@H](CC(C)C)NC(=O)[C@H](CC(=O)O)NC(=O)[C@H](CC(C)C)NC(=O)[C@H](Cc1ccccc1)NC(=O)[C@@H](NC(=O)[C@@H](NC(=O)[C@H](CC(N)=O)NC(=O)[C@@H](NC(=O)[C@H](CCC(N)=O)NC(=O)[C@H](CC(=O)O)NC(=O)[C@H](CC(C)C)NC(=O)[C@@H](N)CO)[C@@H](C)CC)C(C)C)[C@@H](C)O)C(=O)N[C@@H](CCCCN)C(=O)N[C@@H](CCCCN)C(=O)N[C@@H](CC(C)C)C(=O)N[C@@H](CCC(=O)O)C(=O)N[C@@H](CCC(=O)O)C(=O)N[C@@H](CO)C(=O)N[C@@H](Cc1ccc(O)cc1)C(=O)N[C@H](C(=O)N[C@@H](CC(=O)O)C(=O)N[C@@H](CC(C)C)C(=O)N[C@@H](CCCCN)C(=O)N[C@@H](CCC(=O)O)C(=O)N[C@@H](CC(C)C)C(=O)NCC(=O)N[C@@H](CO)C(=O)NCC(=O)N[C@@H](CO)C(=O)NCC(=O)NCCOCCOCCOCCOCCC(=O)N[C@@H](CSCC(=O)O[C@H]1CC[C@@]2(C)C(=CC[C@H]3[C@@H]4CC[C@H]([C@H](C)CCCC(C)C)[C@@]4(C)CC[C@@H]32)C1)C(N)=O)[C@@H](C)CC` [EK1C4], the “Fold more potent than EK1, live HCoV-229E infection” value [1] is reported as 42 fold, the IC50 ([1]; 1 h) is reported as 102 nM and the “Viral titer in brain, Post-0.5 group” value ([2]; 0.5 mg/kg intranasal 0.5 h after challenge, day 5, 5 mice, limit of detection lg2.0 TCID50/g) is reported as “not detected”. The “Brain histopathology, Post-0.5 group” value ([2]; 0.5 mg/kg intranasal 0.5 h after challenge, day 5, one mouse) was “no apparent histopathological changes”, the “Brain histopathology, Pre-0.5 group” value ([2]; 0.5 mg/kg intranasal 0.5 h before challenge, day 5, one mouse) was “no apparent histopathological changes” and the “Viral titer in brain, Pre-0.5 group” value ([2]; 0.5 mg/kg intranasal 0.5 h before challenge, day 5 after infection, 5 mice, limit of detection lg2.0 TCID50/g) was “not detected”. For the same compound, the “Mice with high viral titer detected in brain, Post-2 group” value ([2]; 0.5 mg/kg intranasal 2 h after challenge, day 5, 5 mice, limit of detection lg2.0 TCID50/g) was 4 out of 5 mice, the “Viral titer in brain, Pre-2 group” value ([2]; 0.5 mg/kg intranasal 2 h before challenge, day 5, 5 mice, limit of detection lg2.0 TCID50/g) was “not detected” and the “Brain histopathology, Pre-2 group” value ([2]; 0.5 mg/kg intranasal 2 h before challenge, day 5, one mouse) was “no apparent histopathological changes”. The “Viral titer in brain, Pre-4 group” value ([2]; 0.5 mg/kg intranasal 4 h before challenge, day 5, 5 mice, limit of detection lg2.0 TCID50/g) was “not detected”, the “Brain histopathology, Pre-4 group” value ([2]; 0.5 mg/kg intranasal 4 h before challenge, day 5, one mouse) was “no apparent histopathological changes” and the “Viral titer in brain, Pre-12 group” value ([2]; 0.5 mg/kg intranasal 12 h before challenge, day 5, 5 mice, limit of detection lg2.0 TCID50/g) was “only moderate level of viral titer was detected in brain tissue in one of the 5 mice”. For the same compound, the “Brain histopathology, Pre-12 group” value ([2]; 0.5 mg/kg intranasal 12 h before challenge, day 5, one mouse) was “no apparent histopathological changes”, the “Mice with high viral titer detected in brain, Pre-24 group” value ([2]; 0.5 mg/kg intranasal 24 h before challenge, day 5, 5 mice, limit of detection lg2.0 TCID50/g) was “all 5 mice” and the “Survival rate, Post-0.5 group” value ([2]; newborn mice, intranasal 0.5 mg/kg 0.5 h after HCoV-OC43 infection) was 100%. The “Survival rate, Post-2 group” value ([2]; newborn mice, intranasal 0.5 mg/kg 2 h after HCoV-OC43 infection) was 16.7%, the “Final survival rate, Pre-0.5 group” value ([2]; newborn mice, single intranasal dose 0.5 mg/kg 0.5 h before HCoV-OC43 challenge (100 TCID50), 14 days) was 100% and the “Final survival rate, Pre-2 group” value ([2]; newborn mice, single intranasal dose 0.5 mg/kg 2 h before HCoV-OC43 challenge (100 TCID50), 14 days) was 100%. The “Final survival rate, Pre-4 group” value ([2]; newborn mice, single intranasal dose 0.5 mg/kg 4 h before HCoV-OC43 challenge (100 TCID50), 14 days) was 100%, the “Final survival rate, Pre-12 group” value ([2]; newborn mice, single intranasal dose 0.5 mg/kg 12 h before HCoV-OC43 challenge (100 TCID50), 14 days) was 83% and the “Final survival rate, Pre-24 group” value ([2]; newborn mice, single intranasal dose 0.5 mg/kg 24 h before HCoV-OC43 challenge (100 TCID50), 14 days) was 0%. For the same compound, the “Fold more potent than EK1, WIV1 PsV infection” value [3] was 175 fold, the IC50 ([3]; 72 h) was 30.8 nM and the “Fold more potent than EK1, MERS-S-mediated cell–cell fusion” value [4] was 95 fold. For the same compound, the “Fold more active than EK1, live SARS-CoV-2 infection” value [5] was 67 fold, the IC50 ([5]; live, 72 h) was 36.5 nM and the IC50 [6] was 11.7 nM. The “Fold more potent than EK1, live HCoV-OC43 infection” value [7] was 62 fold, the IC50 ([7]; 1 h) was 24.8 nM and the IC50 [8] was 11.1 nM. For the same compound, the “Fold more active than EK1, HCoV-229E PsV infection” value [9] was “about 319 fold”, the IC50 ([9]; 72 h) was 12.4 nM and the “Fold more potent than EK1, live MERS-CoV infection” value [10] was 190 fold. For the same compound, the IC50 ([10]; 72 h) was 4.2 nM, the “Fold more active than EK1, SARS-CoV S-mediated cell–cell fusion” value [11] was “about 94 fold” and the “Fold more potent than EK1, live HCoV-NL63 infection” value [12] was 19 fold. The IC50 ([12]; 1 h) was 188 nM, the IC50 [13] was 37.7 nM and the “Stability and Tm of complex with SARS-2-HR1 compared with EK1 complex” value [14] was “higher stability and increased Tm values”. The “Fold more potent than EK1, OC43-S-mediated cell–cell fusion” value [15] was 101 fold, the “Fold more active than EK1, HCoV-NL63 PsV infection” value [16] was roughly 99 fold and the IC50 ([16]; 72 h) was 76.6 nM. For the same compound, the “Fold more potent than EK1, SARS-CoV-2 PsV infection” value [17] was ~150 fold and 149 fold, the IC50 ([17]; PsV, 72 h) was 15.8 nM and the “Fold more potent than EK1C1, SARS-CoV-2 S-mediated cell–cell fusion” value [18] was 43 fold. For the same compound, the “Fold more potent than EK1, Rs3367 PsV infection” value [19] was 89 fold and the IC50 ([19]; 72 h) was 66.9 nM.
